Results: patent publication US8361995B2, “Drug comprising at least one gestagen” (Richter Gedeon Nyrt., priority 2007, dated 2013)

How the values were obtained:
human melanocytes = assay: proliferation of human melanocytes cultured with hormones (cell counting, proliferation and apoptosis tests); assay type: cell-based; settings: analysed after 9 days
Description: In a series of experiments, the influence of chlormadinone acetate (CMA) on the proliferation or pigment formation of human melanocytes was examined. To this end, human melanocytes were cultured in each case in the corresponding culture medium, which in each case contained different quantities of ethinyl oestradiol (EO), chlormadinone acetate (CMA) or a combination thereof. The individual compositions are summarised below in Table 1. [table] After 9 days the human melanocytes were analysed in vitro. Cell growth and cell death were determined by cell counting by means of Typan blue staining and by commercial cell proliferation and apoptosis tests. Pigment formation was determined both by measuring the melanin concentration of the cells and by measuring tyrosinase, the key enzyme in pigment formation.

tyrosinase = assay: pigment formation of human melanocytes: tyrosinase activity; assay type: cell-based; settings: 1 nM as the sole hormone in the culture medium; analysed after 9 days
Description: In a series of experiments, the influence of chlormadinone acetate (CMA) on the proliferation or pigment formation of human melanocytes was examined.
To this end, human melanocytes were cultured in each case in the corresponding culture medium, which in each case contained different quantities of ethinyl oestradiol (EO), chlormadinone acetate (CMA) or a combination thereof. The individual compositions are summarised below in Table 1.
After 9 days the human melanocytes were analysed in vitro. Cell growth and cell death were determined by cell counting by means of Typan blue staining and by commercial cell proliferation and apoptosis tests. Pigment formation was determined both by measuring the melanin concentration of the cells and by measuring tyrosinase, the key enzyme in pigment formation.

Row | SMILES | reduction of the proliferation rate of human melanocytes (human melanocytes; 100 nM in the culture medium) | proliferation of human melanocytes (human melanocytes; 1 nM as the sole hormone in the culture medium) | tyrosinase activity of human melanocytes (tyrosinase)
1 | CC(=O)O[C@]1(C(C)=O)CC[C@H]2[C@@H]3C=C(Cl)C4=CC(=O)CC[C@]4(C)[C@H]3CC[C@@]21C [chlormadinone acetate] | 50-70% | – | –
2 | C#C[C@]1(O)CC[C@H]2[C@@H]3CCc4cc(O)ccc4[C@H]3CC[C@@]21C [ethinyl oestradiol] | – | increased | increased
